The values that follow come from US11718633B2, “Indole compounds, process for the preparation and use thereof” (priority 2018, dated 2023).

As a reminder, the MIC is the least concentration at which growth counts as inhibited. For orientation: solubility means how much of the substance goes into solution per volume. A high value points to a readily soluble substance.

Molecules are shown by their SMILES. Converted amounts (≈) assume the structure as drawn. Where only a bound is given, the exact number is not on record here.

One data set has as its system Mtb. H37Rv. In words: Antibacterial susceptibility testing, broth microdilution MIC. The following applies: M. tuberculosis H37Rv ATCC 27294, 7 days, 37° C., no visible growth; for MIC: Mycobacterium tuberculosis, ATCC 27294 / H37Rv, 168 h, read-out: MIC against mycobacterium tuberculosis Mtb. H37Rv. Format: cell-based, Mycobacterium tuberculosis. (In general: Broth dilution looks for growth in wells or tubes with falling amounts of substance.)

The nature of data set [1]: In vitro solubility in buffer at different pH (HPLC). Conditions: for solubility at 5 min: kinetic from dmso stock.
The subject of data set [2] is drug-sensitive Mycobacterium tuberculosis strains. Conditions: drug-sensitive M. tuberculosis; cited from earlier work.
For data set [3], the system named is TB aerosol lung infection model. Conditions: in vivo; cited from earlier work.
Another data set in a line: physchem. The following applies: kinetic from dmso stock.
[4] abbreviates: pH 1.2, simulated gastric fluid.

With `C[Si]1(C)CCN(C(=O)c2cc3c(F)cc(F)cc3[nH]2)CC1` [Compound (k), (4,6-difluoro-1H-indol-2-yl)(4,4-dimethyl-1,4-azasilinan-1-yl)methanone], the minimum inhibitory concentration (MIC) with Mtb. H37Rv worked out at 32 µg/mL (≈ 104 µM).
As to `C[Si]1(C)CCC(NC(=O)c2cc3c(F)cc(F)cc3[nH]2)CC1` [Compound (i), N-(1,1-dimethylsilinan-4-yl)-4,6-difluoro-1H-indole-2-carboxamide], the minimum inhibitory concentration (MIC) in the data set with Mtb. H37Rv came out at 0.03 µg/mL (≈ 0.093 µM). Further, the solubility at 5 min in data set [1] (pH 10.2, aqueous buffer) came to 9.03 µM (≈ 2.91 µg/mL).
Consider `CC1(C)CCC(NC(=O)c2cc3c(Cl)cc(Cl)cc3[nH]2)CC1` [NITD 304, reference compound], for which, in the data set with Mtb. H37Rv, the “MIC against mycobacterium tuberculosis Mtb. H37Rv” value turned out to be 0.06 µg/mL (≈ 0.177 µM). Further, in data set [1] (DMSO @ 10 μM Concentration), the “Solubility in DMSO (standard solution)” value is recorded as “Insoluble in DMSO @ 10 μM Concentration”.
For `C[C@@H]1[C@H]2C[C@@H](C[C@H]1NC(=O)c1cc3c(F)cc(F)cc3[nH]1)C2(C)C` [4,6-difluoro-N-((1R,2R,3R,5S)-2,6,6-trimethylbicyclo[3.1.1]heptan-3-yl)-1H-indole-2-carboxamide], in data set [2], the MIC is 0.012 µM (≈ 0.00399 µg/mL) and the SI was at least 16000. In data set [3], the “activity in the TB aerosol lung infection model (in words)” value is on record as “excellent activity”.
Consider `C[Si]1(C)CCN(NC(=O)c2cc3ccccc3[nH]2)CC1` [Compound (c), N-(4,4-dimethyl-1,4-azasilinan-1-yl)-1H-indole-2-carboxamide], for which the MIC in the data set on Mtb. H37Rv stood at 2 µg/mL (≈ 6.96 µM).
On to `CC1(C)CCN(NC(=O)c2cc3c(F)cc(F)cc3[nH]2)CC1` [Compound (l), N-(4,4-dimethylpiperidin-1-yl)-4,6-difluoro-1H-indole-2-carboxamide], for which the solubility at 5 min in “physchem” (setting [4]) is 49.6 µM (≈ 15.3 µg/mL); in the data set “physchem” (pH 2.2, aqueous buffer), 46.4 µM (≈ 14.3 µg/mL); in the data set “physchem” (pH 4.5, aqueous buffer), 17.3 µM (≈ 5.31 µg/mL); in “physchem” (pH 7.4, aqueous buffer) it was 29.4 µM (≈ 9.04 µg/mL); in the data set “physchem” (pH 10.2, aqueous buffer), 21.4 µM (≈ 6.57 µg/mL).
Regarding `CC1(C)CCC(NC(=O)c2cc3c(F)cc(F)cc3[nH]2)CC1` [NITD 349, reference compound], in the data set with Mtb. H37Rv, the “MIC against mycobacterium tuberculosis Mtb. H37Rv” value was 0.03 µg/mL (≈ 0.0979 µM). Moreover, in data set [1] (buffer pH 1.2), the “Solubility pH 1.2” value amounted to 0.24 μM. Moreover, the “Solubility pH 2.2” value in data set [1] (buffer pH 2.2) was determined as 0.29 μM. Moreover, in data set [1] (buffer pH 4.5), the “Solubility pH 4.5” value is listed as 0.15 μM. In data set [1] (buffer pH 7.4), the “Solubility pH 7.4” value amounted to 0.24 μM. For the same compound, in data set [1] (buffer pH 10.2), the “Solubility pH 10.2” value is 7.30 μM.
Regarding `C[Si]1(C)CCN(C(=O)c2cc3c(Cl)cc(Cl)cc3[nH]2)CC1` [Compound (g), (4,6-dichloro-1H-indol-2-yl)(4,4-dimethyl-1,4-azasilinan-1-yl)methanone], the MIC in the data set with Mtb. H37Rv stood at 16 µg/mL (≈ 46.9 µM).
Consider `C[Si]1(C)CCC(NC(=O)c2cc3c(Cl)cc(Cl)cc3[nH]2)CC1` [Compound (e), 4,6-dichloro-N-(1,1-dimethylsilinan-4-yl)-1H-indole-2-carboxamide], for which, in the data set on Mtb. H37Rv, the MIC came out at 0.03 µg/mL (≈ 0.0844 µM).
`C[Si]1(C)CCN(NC(=O)c2cc3c(Cl)cc(Cl)cc3[nH]2)CC1.Cl` [Compound (m), 4,6-dichloro-N-(4,4-dimethyl-1,4-azasilinan-1-yl)-1H-indole-2-carboxamide hydrochloride]: the “aqueous solubility at the acidic pH (in words)” value (“aqueous solubility” below) in data set [1] is “good aqueous solubility”. The solubility at 5 min in data set [1] (setting [4]) was 38.6 µM; in data set [1] (pH 2.2, aqueous buffer), 28.4 µM; in data set [1] (pH 4.5, aqueous buffer) it was 2.55 µM; in data set [1] (pH 7.4, aqueous buffer) it was 2.73 µM; in data set [1] (pH 10.2, aqueous buffer), 2.46 µM.
In the case of `C[Si]1(C)CCC(NC(=O)c2cc3ccccc3[nH]2)CC1` [Compound (b), N-(1,1-dimethylsilinan-4-yl)-1H-indole-2-carboxamide], the MIC with Mtb. H37Rv is 0.03 µg/mL (≈ 0.105 µM).
Still for that read-out and setting: the same measure for `C[Si]1(C)CCN(C(=O)c2cc3ccccc3[nH]2)CC1` [Compound (d), (4,4-dimethyl-1,4-azasilinan-1-yl)(1H-indol-2-yl)methanone]: 32 µg/mL (≈ 117 µM); for `CC1(C)CCC(NC(=O)c2cc3ccccc3[nH]2)CC1` [Compound (a), N-(4,4-dimethylcyclohexyl)-1H-indole-2-carboxamide]: 0.06 µg/mL (≈ 0.222 µM).
In the case of `C[Si]1(C)CCN(NC(=O)c2cc3c(Cl)cc(Cl)cc3[nH]2)CC1` [Compound (f), 4,6-dichloro-N-(4,4-dimethyl-1,4-azasilinan-1-yl)-1H-indole-2-carboxamide], the MIC in the data set with Mtb. H37Rv stood at 0.03 µg/mL (≈ 0.0842 µM). For the same compound, in data set [1], the “aqueous solubility” value is on record as “good aqueous solubility”. Further, the solubility at 5 min was 40.4 µM (≈ 14.4 µg/mL) in data set [1] (setting [4]); 26.3 µM (≈ 9.37 µg/mL) in data set [1] (pH 2.2, aqueous buffer); 2.57 µM (≈ 0.916 µg/mL) in data set [1] (pH 4.5, aqueous buffer); 2.57 µM (≈ 0.916 µg/mL) in data set [1] (pH 7.4, aqueous buffer); 2.7 µM (≈ 0.962 µg/mL) in data set [1] (pH 10.2, aqueous buffer).
For `CC1(C)CCN(NC(=O)c2cc3c(Cl)cc(Cl)cc3[nH]2)CC1.Cl` [Compound (n), 4,6-dichloro-N-(4,4-dimethylpiperidin-1-yl)-1H-indole-2-carboxamide hydrochloride], the solubility at 5 min in the data set “physchem” (setting [4]) was 42.6 µM; in “physchem” (pH 2.2, aqueous buffer), 26.2 µM; in the data set “physchem” (pH 4.5, aqueous buffer), 7.24 µM; in “physchem” (pH 7.4, aqueous buffer), 10.6 µM; in the data set “physchem” (pH 10.2, aqueous buffer) it was 9.89 µM.
For `CC1(C)CCN(NC(=O)c2cc3c(Cl)cc(Cl)cc3[nH]2)CC1` [Compound (h), 4,6-dichloro-N-(4,4-dimethylpiperidin-1-yl)-1H-indole-2-carboxamide], in that order: 41.1 µM (≈ 14 µg/mL), 30 µM (≈ 10.2 µg/mL), 8.6 µM (≈ 2.93 µg/mL), 6.32 µM (≈ 2.15 µg/mL) and 8.67 µM (≈ 2.95 µg/mL).
On to `C[Si]1(C)CCN(NC(=O)c2cc3c(F)cc(F)cc3[nH]2)CC1` [Compound (j), N-(4,4-dimethyl-1,4-azasilinan-1-yl)-4,6-difluoro-1H-indole-2-carboxamide], for which the MIC with Mtb. H37Rv worked out at 0.125 µg/mL (≈ 0.386 µM). Also, in data set [1], the “aqueous solubility” value was “good aqueous solubility”. The solubility at 5 min in data set [1] (setting [4]) was 49.7 µM (≈ 16.1 µg/mL); in data set [1] (pH 2.2, aqueous buffer), 31.3 µM (≈ 10.1 µg/mL); in data set [1] (pH 4.5, aqueous buffer), 1.01 µM (≈ 0.327 µg/mL); in data set [1] (pH 7.4, aqueous buffer), 1 µM (≈ 0.323 µg/mL); in data set [1] (pH 10.2, aqueous buffer) it was 1.1 µM (≈ 0.356 µg/mL).
